Experimental data published in PubChem BioAssay (NCI).
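Each compound was tested at five concentrations against cells in 96-well plates for 48 hours. Here, GI50 denotes the concentration required for 50% inhibition of growth. TGI marks complete inhibition of growth.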

Columns and labels:
Assay in all cases: growth of human tumour cells (NCI), 48 h
SNB-75 CNS = system: SNB-75 CNS
786-0 renal = system: 786-0 renal
TK-10 renal = system: TK-10 renal
BT-549 breast = system: BT-549 breast
NCI-H226 lung = system: NCI-H226 lung
DU-145 prostate = system: DU-145 prostate
SF-539 CNS = system: SF-539 CNS
OVCAR-5 ovarian = system: OVCAR-5 ovarian
RXF 393 renal = system: RXF 393 renal
M14 melanoma = system: M14 melanoma
U251 CNS = system: U251 CNS
T-47D breast = system: T-47D breast
SW-620 colon = system: SW-620 colon
ACHN renal = system: ACHN renal
RPMI-8226 leukemia = system: RPMI-8226 leukemia
OVCAR-4 ovarian = system: OVCAR-4 ovarian
MALME-3M melanoma = system: MALME-3M melanoma
MDA-MB-435 = system: MDA-MB-435
HCC-2998 colon = system: HCC-2998 colon
CAKI-1 renal = system: CAKI-1 renal
PC-3 prostate = system: PC-3 prostate
SR leukemia = system: SR leukemia
HCT-116 colon = system: HCT-116 colon
NCI-H522 lung = system: NCI-H522 lung
MOLT-4 leukemia = system: MOLT-4 leukemia
HL-60(TB) leukemia = system: HL-60(TB) leukemia
EKVX NSCLC = system: EKVX NSCLC
SN12C renal = system: SN12C renal
SF-268 CNS = system: SF-268 CNS
KM12 colon = system: KM12 colon
UO-31 renal = system: UO-31 renal
COLO 205 colon = system: COLO 205 colon
SK-MEL-28 melanoma = system: SK-MEL-28 melanoma
HOP-62 NSCLC = system: HOP-62 NSCLC
SK-MEL-5 melanoma = system: SK-MEL-5 melanoma
SK-OV-3 ovarian = system: SK-OV-3 ovarian
UACC-62 melanoma = system: UACC-62 melanoma
A549 NSCLC = system: A549 NSCLC
A498 renal = system: A498 renal
SK-MEL-2 melanoma = system: SK-MEL-2 melanoma
HCT-15 colon = system: HCT-15 colon
UACC-257 melanoma = system: UACC-257 melanoma
NCI/ADR-RES ovarian = system: NCI/ADR-RES ovarian
CCRF-CEM leukemia = system: CCRF-CEM leukemia
HS 578T breast = system: HS 578T breast
SNB-19 CNS = system: SNB-19 CNS
OVCAR-3 ovarian = system: OVCAR-3 ovarian
NCI-H460 lung = system: NCI-H460 lung
MDA-MB-468 breast = system: MDA-MB-468 breast
HOP-92 NSCLC = system: HOP-92 NSCLC
MDA-MB-231 breast = system: MDA-MB-231 breast
IGROV1 ovarian = system: IGROV1 ovarian
NCI-H23 lung = system: NCI-H23 lung
OVCAR-8 ovarian = system: OVCAR-8 ovarian
HT29 colon = system: HT29 colon

## Cn1cc(-c2cc(N)n3nc(-c4cn(C)c5ccccc45)cc3n2)c2cc(Br)ccc21
SNB-75 CNS
  GI50: 2.41 µM
  TGI: 9.59 µM
786-0 renal
  GI50: 1.57 µM
  TGI: 2.99 µM
TK-10 renal
  GI50: 2.19 µM
  TGI: 4.81 µM
BT-549 breast
  GI50: 2.29 µM
  TGI: 5.65 µM
NCI-H226 lung
  GI50: 25.1 µM
  TGI: > 100 µM
DU-145 prostate
  GI50: 4.96 µM
  TGI: > 100 µM
SF-539 CNS
  GI50: 1.58 µM
  TGI: 3.09 µM
OVCAR-5 ovarian
  GI50: 2.55 µM
  TGI: 7.8 µM
RXF 393 renal
  GI50: 1.8 µM
  TGI: 3.46 µM
M14 melanoma
  GI50: 1.82 µM
  TGI: 3.68 µM
U251 CNS
  GI50: 1.79 µM
  TGI: 3.65 µM
T-47D breast
  GI50: 2.07 µM
  TGI: 5.7 µM
SW-620 colon
  GI50: 2.16 µM
  TGI: 5 µM
ACHN renal
  GI50: 1.78 µM
  TGI: 4.05 µM
RPMI-8226 leukemia
  GI50: 2.48 µM
  TGI: 8.15 µM
OVCAR-4 ovarian
  GI50: 2.46 µM
  TGI: 6.34 µM
MALME-3M melanoma
  GI50: 1.66 µM
  TGI: 3.08 µM
MDA-MB-435
  GI50: 1.87 µM
  TGI: 3.67 µM
HCC-2998 colon
  GI50: 1.81 µM
  TGI: 3.49 µM
CAKI-1 renal
  GI50: 1.44 µM
  TGI: 2.96 µM
PC-3 prostate
  GI50: 1.87 µM
  TGI: 4.69 µM
SR leukemia
  GI50: 1.7 µM
  TGI: 7.3 µM
HCT-116 colon
  GI50: 1.59 µM
  TGI: 2.93 µM
NCI-H522 lung
  GI50: 1.55 µM
  TGI: 3.21 µM
MOLT-4 leukemia
  GI50: 1.6 µM
  TGI: 7.55 µM
HL-60(TB) leukemia
  GI50: 2.08 µM
  TGI: 5.53 µM
EKVX NSCLC
  GI50: 1.75 µM
  TGI: 6.71 µM
SN12C renal
  GI50: 1.66 µM
  TGI: 3.18 µM
SF-268 CNS
  GI50: 2.66 µM
  TGI: 8.95 µM
KM12 colon
  GI50: 2.02 µM
  TGI: 4.66 µM
UO-31 renal
  GI50: 1.48 µM
  TGI: 2.85 µM
COLO 205 colon
  GI50: 1.95 µM
  TGI: 3.9 µM
SK-MEL-28 melanoma
  GI50: 1.72 µM
  TGI: 3.14 µM
HOP-62 NSCLC
  GI50: 2.24 µM
  TGI: 6.01 µM
SK-MEL-5 melanoma
  GI50: 1.89 µM
  TGI: 3.5 µM
SK-OV-3 ovarian
  GI50: 3.72 µM
  TGI: 17.2 µM
UACC-62 melanoma
  GI50: 1.58 µM
  TGI: 3.05 µM
A549 NSCLC
  GI50: 2.44 µM
  TGI: > 100 µM
A498 renal
  GI50: 1.74 µM
  TGI: 3.89 µM
SK-MEL-2 melanoma
  GI50: 1.68 µM
  TGI: 3.36 µM
HCT-15 colon
  GI50: 1.71 µM
  TGI: 4.59 µM
UACC-257 melanoma
  GI50: 1.73 µM
  TGI: 3.34 µM
NCI/ADR-RES ovarian
  GI50: 2.45 µM
  TGI: 6.77 µM
CCRF-CEM leukemia
  GI50: 2.87 µM
  TGI: 11.7 µM
HS 578T breast
  GI50: 2.44 µM
  TGI: 5.92 µM
SNB-19 CNS
  GI50: 3.24 µM
  TGI: 25.9 µM
OVCAR-3 ovarian
  GI50: 2.22 µM
  TGI: 5.16 µM
NCI-H460 lung
  GI50: 1.96 µM
  TGI: 4.03 µM
MDA-MB-468 breast
  GI50: 1.57 µM
  TGI: 3.73 µM
HOP-92 NSCLC
  GI50: 1.48 µM
  TGI: 3.16 µM
MDA-MB-231 breast
  GI50: 1.7 µM
  TGI: 3.12 µM
IGROV1 ovarian
  GI50: 1.82 µM
  TGI: 5.07 µM
NCI-H23 lung
  GI50: 2.36 µM
  TGI: 7.02 µM
OVCAR-8 ovarian
  GI50: 1.83 µM
  TGI: 3.67 µM
HT29 colon
  GI50: 1.7 µM
  TGI: 3.25 µM

## CNCCNc1nc2ccccc2c2c(=O)c3cc(OC)ccc3sc12
MDA-MB-468 breast
  GI50: 1.49 µM
  TGI: 3.03 µM

## N=c1ccc2nc3c(cc(N)c4ccccc43)oc-2c1
MDA-MB-468 breast
  GI50: 0.0865 µM
  TGI: 0.423 µM

## CCCCN(CCCC)CCc1c(C)cc(C)c(CCN(CCCC)CCCC)c1O
MDA-MB-468 breast
  GI50: 1.83 µM
  TGI: 5.51 µM

## Cc1cc2nc(-c3c(N)ncc(C#N)c3-c3ccc(Cl)cc3)[nH]c2cc1C
MDA-MB-468 breast
  GI50: 12.4 µM
  TGI: 51.5 µM

## CCCCCCNC(=O)Oc1ccc(/C(=C(/C)Cc2ccc(OC)cc2)c2ccc(OCCN(C)C)cc2)cc1
MDA-MB-468 breast
  GI50: 5.4 µM
  TGI: 10.6 µM

## CC[C@]1(O)C[C@@H]2CN(CCc3c([nH]c4ccccc34)[C@@](C(=O)OC)(c3cc4c(cc3OC)N(C)[C@H]3[C@@](O)(C(N)=O)[C@H](O)[C@]5(CC)[C@@H]6C[C@@H]6CN6CC[C@]43[C@@H]65)C2)C1
MDA-MB-468 breast
  GI50: < 0.00333 µM
  TGI: 0.262 µM
